Measured values taken from article PMC11277421, “Advancing Cardiovascular Drug Screening Using Human Pluripotent Stem Cell-Derived Cardiomyocytes” (International Journal of Molecular Sciences, 2024).
pEC50: −log10 of the molar value. “Also recorded” adds a separate entry of the source.

How the values were obtained:
[1] = tested on: iPSC-CMs; assay: Cardiotoxicity test: spontaneous calcium oscillations (FLIPR, EarlyTox dye); conditions: for pEC50: Homo sapiens, iPSC-CM, read-out: EC50 (beating rate, calcium oscillations); for effect on beating rate: iPSC-CMs, concentration-dependent
Procedure: Spontaneous calcium oscillations in iPSC-CMs were measured using the FLIPR system in the absence or presence of test compounds. […] This approach allowed the evaluation of proarrhythmic effects of drug candidates based on calcium dynamics occurring within the iPSC-CMs.
Figure 4 Utilization of hPSC-CMs as a platform for high-throughput testing of the cardiotoxicity and effectiveness of drugs. Spontaneous calcium oscillations in iPSC-CMs were measured using the FLIPR system in the absence or presence of test compounds. (a,b) Cardiotoxicity test. […] (b) Testing of the compounds known for their adverse effects in humans. […] (c,d) Efficacy test. (c) iPSC-CMs (c1) and ESC-CMs (c2) were treated with 200 nM ATX-II, a late inward sodium current inducer, which produces atrial arrhythmias mimicking the LQT3 phenotype, followed by exposure to a test compound. […] Error bars, mean ± SEM (N = 3). Asterisks, *—statistically significant differences (Student’s t-test; p < 0.05).
Spontaneous calcium transients in contracting CMs were monitored using the FLIPR Tetra® High Throughput Cellular Screening System (Molecular Devices). hPSC-CMs were plated on the Matrigel-coated wells (8 × 10^4 cells per well) of a 96-well plate. Confluency was monitored after 2 days, and the strong synchronous contractions of cells were confirmed prior to the cardiac calcium oscillation assay. Experiments were conducted after 7–10 days of cell culture. The EarlyTox^TM Cardiotoxicity Kit (Molecular Devices) was used; a calcium-sensitive fluorescent dye was added to the plate according to the manufacturer’s instructions and incubated for 2 h at 37 °C. […] Calcium oscillations were measured at 20, 40, and 60 min after treatment. The acquired data were analyzed for beat frequency and peak width at 10% amplitude using ScreenWorks Peak Pro software version 2.0 (Molecular Devices).

[2] = tested on: hPSCs; assay: Optimization of CHIR99021 concentration for hPSC-CM generation (morphology, cTnT FACS); assay type: cell-based, human; conditions: tested 0, 6, 9, 12 μM; morphology and cTnT expression on D10
Description: To optimize the culture conditions for CM generation from hPSCs (iPSCs and ESCs), cells were propagated on Matrigel-coated culture plates with maintenance medium, as described in the Section 4. Subsequently, hPSCs underwent differentiation for 10 days, followed by maturation for another 10 days or longer if needed (Figure 1a). For the initial induction of mesodermal differentiation, CHIR99021, a GSK3 inhibitor and Wnt activator, was used. On the first day of hPSC cm generation, hPSCs were treated with CHIR99021 at various concentrations (0, 6, 9, and 12 μM) (Figure 1b). The optimal concentration of CHIR99021 for the efficient generation of hPSC-CMs was determined to be 9 μM based on their morphology and cTnT expression (Figure 1b). For further differentiation into cardiac progenitor cells, Wnt-C59, a small molecule that inhibits Wnt palmitoylation, was added to the differentiation medium from D2 to D4. For late differentiation into contracting CMs from D6 to D10, insulin was added. Contracting CMs were observed between D9 and D11 (Supplementary Figure S1). During differentiation over 10 days, there were changes in the expression levels of CM-related genes (Figure 1c). […] Moreover, GATA4, NKX2.5, TBX5, and ISL1, transcription factors that play key roles in cardiac development, were highly expressed on D10 compared with D0 or D5, indicating the induction of cardiac lineage cells. […]

[3] = tested on: ESC-CMs; assay: Efficacy test: ATX-II-induced LQT3 phenotype, calcium oscillations in ESC-CMs; assay type: cell-based, human; conditions: for average peak width after ATX-II, reversal by test compound: ESC-CMs pretreated with 200 nM ATX-II
Description: (§1) (a,b) Cardiotoxicity test. […] (c,d) Efficacy test. […] Error bars, mean ± SEM (N = 3).
(§2) For the efficacy test (Figure 4c), iPSC-CMs and ESC-CMs were generated as previously mentioned and used to screen effective compounds for reversing arrhythmia phenotype.

[4] = tested on: iPSC-CMs; assay: Efficacy test: ATX-II-induced LQT3 phenotype, calcium oscillations in iPSC-CMs; assay type: cell-based, human; conditions: for average peak width after ATX-II, reversal by test compound: iPSC-CMs pretreated with 200 nM ATX-II
Description: as §1, §2

Row | Compound | pEC50 [1] | effect on beating rate [1] | also measured
1 | COc1ccc([C@@H]2Sc3ccccc3N(CCN(C)C)C(=O)[C@@H]2OC(C)=O)cc1 [diltiazem] | 5.22 | increased the beating rate | –
2 | COc1ccc(CCN(C)CCCC(C#N)(c2ccc(OC)c(OC)c2)C(C)C)cc1OC (centres unmarked) [verapamil] | 6.28 | increased the beating rate | –
3 | CC(C)c1nc(CN(C)C(=O)N[C@H](C(=O)N[C@@H](Cc2ccccc2)C[C@H](O)[C@H](Cc2ccccc2)NC(=O)OCc2cncs2)C(C)C)cs1 [ritonavir] | 5.22 | inhibited the beating rates | –
4 | Cc1c[nH]c(-c2cnc(NCCNc3ccc(C#N)cn3)nc2-c2ccc(Cl)cc2Cl)n1 [CHIR99021] | – | – | optimal concentration for efficient generation of hPSC-CMs [2]: 9 µM
5 | O=C(NCC1CCCCN1)c1cc(OCC(F)(F)F)ccc1OCC(F)(F)F (centres unmarked) [flecainide] | 4.76 | inhibited the beating rates | –
6 | CN(CCOc1ccc(NS(C)(=O)=O)cc1)CCc1ccc(NS(C)(=O)=O)cc1 [dofetilide] | 7.74 | decrease in the beating rate | –
7 | CCCN1CCCC[C@H]1C(=O)Nc1c(C)cccc1C [ropivacaine] | – | – | average peak width after ATX-II, reversal by test compound [3]: restored to the level of untreated control cells; also recorded: significantly reverted the average peak width to the level of untreated control cells; average peak width after ATX-II, reversal by test compound [4]: restored to the level of untreated control cells; also recorded: significantly reverted the average peak width to the level of untreated control cells
8 | CCCN(CCc1cccs1)[C@H]1CCc2c(O)cccc2C1 [rotigotine] | – | – | average peak width after ATX-II, reversal by test compound [3]: restored to the level of untreated control cells; also recorded: significantly reverted the average peak width to the level of untreated control cells; average peak width after ATX-II, reversal by test compound [4]: restored to the level of untreated control cells; also recorded: significantly reverted the average peak width to the level of untreated control cells
9 | ATX-II: late inward sodium current inducer known to produce atrial arrhythmias, mimicking LQT3 | – | – | average peak width (effect of ATX-II itself) ([3]; 200 nM, ESC-CMs): higher average peak widths; average peak width (effect of ATX-II itself) ([4]; 200 nM, iPSC-CMs): higher average peak widths
